Measured values taken from paper PMC2846816 (Arthritis and rheumatism, 2009).
Structures can show the parent of a compound that is named as a salt. Where two headings read alike, the source gives them in different places. Values belong to the molecule of their own block, whether it stands above or below them.

What was measured:
Experiment in all cases: Fura-2 Ca2+ influx
Type in all cases: cell-based
TRPV4 [1] = molecular target: T1, TRPV4 (Sus scrofa, UniProt B3VP30)
TRPV4 [2] = molecular target: T1, TRPV4; remark: listed apart in the source
TRPV4 [3] = molecular target: T1, TRPV4; remark: listed apart in the source

T1 sequence (B3VP30 1-871): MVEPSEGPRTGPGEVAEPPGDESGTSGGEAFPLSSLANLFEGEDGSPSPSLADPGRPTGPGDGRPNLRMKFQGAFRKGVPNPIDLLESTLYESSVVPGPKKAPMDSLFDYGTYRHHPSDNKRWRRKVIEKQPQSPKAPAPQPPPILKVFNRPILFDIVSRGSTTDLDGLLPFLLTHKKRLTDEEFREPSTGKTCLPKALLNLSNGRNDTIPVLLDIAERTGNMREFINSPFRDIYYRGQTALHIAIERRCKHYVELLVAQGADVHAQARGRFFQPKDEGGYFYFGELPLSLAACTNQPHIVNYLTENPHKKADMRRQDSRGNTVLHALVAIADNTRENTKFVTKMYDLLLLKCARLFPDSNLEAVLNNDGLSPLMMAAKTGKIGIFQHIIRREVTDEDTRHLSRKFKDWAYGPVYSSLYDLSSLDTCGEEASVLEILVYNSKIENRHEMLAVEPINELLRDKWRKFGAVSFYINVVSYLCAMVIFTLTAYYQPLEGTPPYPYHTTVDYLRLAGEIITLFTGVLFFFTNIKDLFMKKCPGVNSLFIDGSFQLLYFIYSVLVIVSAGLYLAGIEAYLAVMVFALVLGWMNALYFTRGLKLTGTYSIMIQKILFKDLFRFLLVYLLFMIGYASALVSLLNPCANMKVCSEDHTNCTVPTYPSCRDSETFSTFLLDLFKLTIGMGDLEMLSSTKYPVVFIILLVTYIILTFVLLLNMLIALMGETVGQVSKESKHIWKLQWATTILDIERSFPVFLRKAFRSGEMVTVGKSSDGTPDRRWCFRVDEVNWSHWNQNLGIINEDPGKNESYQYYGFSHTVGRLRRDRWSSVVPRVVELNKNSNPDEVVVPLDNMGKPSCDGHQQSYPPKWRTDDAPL

- IC50 (TRPV4 [1]): ~0.6 µM
Compound: CN(CCc1ccc(Nc2ncc(-c3cccnc3)s2)cc1)Cc1ccccc1 [GSK205, N-(4-{2 [methyl(phenylmethyl)amino]ethyl}phenyl)-5-(3-pyridinyl)-1,3-thiazol-2-amine hydrobromide]

Compound: Cl.Cl.Cl.Cl.Cl.Cl.N.N.N.N.N.N.N.N.N.N.N.N.N.N.[O-2].[O-2].[Ru+3].[Ru+3].[Ru+4] [Ruthenium Red]
- IC50 (TRPV4 [2]): ~0.005 µM

Compound: CCCCCCCCCC(=O)O[C@@H]1[C@@H](C)[C@@]2(O)[C@@H](C=C(CO)C[C@@]3(O)C(=O)C(C)=C[C@@H]23)[C@@H]2C(C)(C)[C@]12OC(=O)CCCCCCCCC [4αPDD]
- EC50 (TRPV4 [3]): ~2 µM
